EP0066987B1, “N-(aryloxyalkyl)-N'-(amino-alkyl) ureas” (A.H. ROBINS COMPANY, INCORPORATED, priority 1981, dated 1982)

Assay: Side effects compared with quinidine and lidocaine
Settings: as compared to quinidine and lidocaine

SMILES: CC(C)N(CCOc1cc(Cl)cc(Cl)c1)C(=O)NCCN(C)C.O=C(O)/C=C\C(=O)O [Example 3, N-[2-(3,5-Dichlorophenoxy)ethyl]-N'-[2-(dimethylamino)ethyl]-N-(1-methylethyl)urea, maleate [1:1]]
- CNS side effects: minimal CNS side effects
